In patent US11957680B2, “Pyruvate kinase activators for use in treating blood disorders” (Agios Pharmaceuticals, Inc., priority 2017, dated 2024):

Experiments:
[1] = biological target: T1, wild type PKR (Homo sapiens, UniProt P30613); assay: PKR (wild type) enzyme AC50 assay, LDH/NADH-coupled, absorbance at 340 nm; type: biochemical; conditions: for AC50: Table 2, enzyme assay, read-out: PKR WT AC50; for EC50: Table 4, AC50, enzyme assay, read-out: PKR WT
Procedure, shortened: (§1)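 In this coupled kinetic format, PKR converts PEP and ADP to pyruvate, which LDH reduces while oxidising NADH. Test compounds, diluted from 10 mM DMSO stocks to a 100 μM top concentration, were preincubated 60 min before ADP was added.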

[2] = biological target: PKR K410E (Homo sapiens, UniProt P30613, K410E); assay: PKR mutant assay (K410E), AC50, LDH/NADH-coupled, absorbance at 340 nm; type: biochemical; conditions: for AC50: Table 2, enzyme assay; for EC50: Table 4, AC50, enzyme assay
PKR K410E, sequence (P30613 whole entry K410E): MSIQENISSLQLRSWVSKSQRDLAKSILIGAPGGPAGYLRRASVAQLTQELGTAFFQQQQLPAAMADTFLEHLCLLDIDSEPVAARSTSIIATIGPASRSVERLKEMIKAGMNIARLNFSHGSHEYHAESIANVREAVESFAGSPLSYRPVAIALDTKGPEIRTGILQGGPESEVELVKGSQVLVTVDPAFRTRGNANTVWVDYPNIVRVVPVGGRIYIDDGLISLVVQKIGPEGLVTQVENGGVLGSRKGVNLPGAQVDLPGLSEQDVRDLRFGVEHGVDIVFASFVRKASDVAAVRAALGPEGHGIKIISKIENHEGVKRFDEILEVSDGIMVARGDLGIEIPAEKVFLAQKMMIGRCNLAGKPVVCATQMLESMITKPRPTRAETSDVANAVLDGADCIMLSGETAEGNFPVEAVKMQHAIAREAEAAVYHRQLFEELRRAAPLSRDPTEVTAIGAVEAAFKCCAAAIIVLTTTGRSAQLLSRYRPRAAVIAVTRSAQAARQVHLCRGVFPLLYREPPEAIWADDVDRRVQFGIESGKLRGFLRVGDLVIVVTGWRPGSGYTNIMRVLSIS
Procedure, shortened: as §1

[3] = biological target: PKR R510Q (Homo sapiens, UniProt P30613, R510Q); assay: PKR mutant assay (R510Q), AC50, LDH/NADH-coupled, absorbance at 340 nm; type: biochemical; conditions: for AC50: read-out: PK R510Q AC50; for EC50: Table 4, AC50, enzyme assay, read-out: PK R510Q
PKR R510Q, sequence (P30613 whole entry R510Q): as the sequence (P30613 whole entry K410E) above, with E410K, R510Q counted along it
Procedure, shortened: as §1

[4] = biological target: T1, wild type PKR; assay: Cell based ATP assay in purified red blood cells (Cell-Titer-Glo); set-up: endogenous in cells; host or cells: purified red blood cells from healthy volunteers; conditions: overnight at 37° C., ATP levels; for AC50 / Cell based ATP assay AC50: Table 2, RBCs
Procedure, shortened: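 ATP levels were quantified by Cell-Titer-Glo after overnight 37 °C exposure of cells to compound (1:4 dilution series, 0.1% DMSO final). The cells were human erythrocytes, filter-purified to remove leukocytes and plated at 1×10^7 cells/mL in AGAM medium.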

T1 sequence (P30613 whole entry): as the sequence (P30613 whole entry K410E) above, with E410K counted along it

Row | Structure (SMILES) | AC50 [1] [nM] | AC50 [2] [nM] | AC50 ([3]; Table 2, enzyme assay) [nM] | AC50 [4] [nM] | EC50 [1] [nM] | EC50 [2] [nM] | EC50 [3] [nM] | EC50 ([4]; Table 4, AC50, RBCs) [nM] | Cell based ATP assay ([4]; Table 4, AC50, RBCs) | Cell based ATP assay AC50 [4] | PK R510Q AC50 ([3]; Table 2, enzyme assay)
1 | Cn1ccc(Cn2ncc3c4sc(CCc5cc[nH]n5)nc4n(C)c3c2=O)n1 [Compound 393] |  |  |  |  | < 300 | < 300 | < 300 | ≤ 1000 |  |  | 
2 | Cn1c2nc(Cc3ccccn3)sc2c2cnn(Cc3ccccc3)c(=O)c21 [Compound 263] |  |  |  |  | < 300 | < 300 | < 300 | ≤ 1000 |  |  | 
3 | Cn1c2nc(S(C)(=O)=O)sc2c2cnn(Cc3cccc4[nH]ncc34)c(=O)c21 [Compound 92] | < 300 | 301 to 800 | 301 to 800 | ≤ 1000 |  |  |  |  |  |  | 
4 | Cn1c2nc(Cc3cc[nH]n3)sc2c2cnn(Cc3ccc(C(N)=O)cc3)c(=O)c21 [Compound 176] | > 800 | > 800 | > 800 | > 1000 |  |  |  |  |  |  | 
5 | Cn1c2nc([C@@H](O)c3cc[nH]n3)sc2c2cnn(Cc3cccc4[nH]ncc34)c(=O)c21 [Compound 304] |  |  |  |  | < 300 | < 300 | < 300 | ≤ 1000 |  |  | 
6 | COc1cccc(Cn2ncc3c4sc(CO)nc4n(C)c3c2=O)c1 [Compound 51] | < 300 | < 300 | < 300 | ≤ 1000 |  |  |  |  |  |  | 
7 | Cn1c2nc(Cc3cc[nH]n3)sc2c2cnn(Cc3ccc4cc[nH]c4n3)c(=O)c21 [Compound 380] |  |  |  |  | < 300 | < 300 | < 300 | ≤ 1000 |  |  | 
8 | Cn1c2nc(Cc3cc[nH]n3)sc2c2cnn(Cc3cccc4c3CNC4)c(=O)c21 [Compound 253] |  |  |  |  | < 300 | < 300 | < 300 | ≤ 1000 |  |  | 
9 | Cn1c2nc(Cc3cn[nH]c3)sc2c2cnn(Cc3cccc4[nH]ncc34)c(=O)c21 [Compound 184] | < 300 | < 300 | < 300 | ≤ 1000 |  |  |  |  |  |  | 
10 | COc1cccc(Cn2ncc3c4sc([S+](C)[O-])nc4n(C)c3c2=O)c1 (stereo not shown) [Compound 24] | < 300 | < 300 | < 300 | > 1000 |  |  |  |  |  |  | 
11 | Cn1c2nc(Cc3cc[nH]n3)sc2c2cnn(Cc3ccc(O)c(N)c3)c(=O)c21 [Compound 256] |  |  |  |  | < 300 | < 300 | < 300 | ≤ 1000 |  |  | 
12 | COc1cccc(Cn2ncc3c4scnc4n(C)c3c2=O)c1 [Compound 19] | 301 to 800 | 301 to 800 | < 300 | > 1000 |  |  |  |  |  |  | 
13 | COc1cccc(Cn2ncc3c4sc(Cc5ccccc5)nc4n(C)c3c2=O)c1 [Compound 5] | < 300 | < 300 | < 300 | ≤ 1000 |  |  |  |  |  |  | 
14 | C=Cc1nc2c(s1)c1cnn(Cc3cccc(OC)c3)c(=O)c1n2C [Compound 37] | 301 to 800 | > 800 | < 300 | > 1000 |  |  |  |  |  |  | 
15 | Cc1nc2c(s1)c1cnn(CCO)c(=O)c1n2C [Compound 67] | > 800 | > 800 |  |  |  |  |  |  |  | No Fit | No Fit
16 | Cc1nc2c(s1)c1cnn(Cc3cccc(F)c3)c(=O)c1n2C [Compound 6] | > 800 | > 800 | > 800 | > 1000 |  |  |  |  |  |  | 
17 | Cn1ccc(Cn2ncc3c4sc(Cc5cccc6cn[nH]c56)nc4n(C)c3c2=O)n1 [Compound 258] |  |  |  |  | < 300 | < 300 | < 300 | ≤ 1000 |  |  | 
18 | Cn1c2nc(Cc3ccncc3)sc2c2cnn(Cc3cccc4[nH]ncc34)c(=O)c21 [Compound 161] | > 800 | > 800 | > 800 | > 1000 |  |  |  |  |  |  | 
19 | Cn1c2nc(Cc3cccc(N)n3)sc2c2cnn(Cc3cccc4[nH]ncc34)c(=O)c21 [Compound 276] |  |  |  |  | < 300 | < 300 | < 300 | ≤ 1000 |  |  | 

Results, then the molecule that gave them:

Row | AC50 [1] [nM] | AC50 [2] [nM] | AC50 ([3]; Table 2, enzyme assay) [nM] | AC50 [4] [nM] | EC50 [1] [nM] | EC50 [2] [nM] | EC50 [3] [nM] | EC50 ([4]; Table 4, AC50, RBCs) [nM] | Cell based ATP assay ([4]; Table 4, AC50, RBCs) | Cell based ATP assay AC50 [4] | PK R510Q AC50 ([3]; Table 2, enzyme assay) | Structure (SMILES)
20 | < 300 | 301 to 800 | < 300 | > 1000 |  |  |  |  |  |  |  | COc1cccc(Cn2ncc3c4sc(Cl)nc4n(C)c3c2=O)c1 [Compound 30]
21 | > 800 | > 800 | > 800 | ≤ 1000 |  |  |  |  |  |  |  | Cn1c2nc(Cc3cncnc3)sc2c2cnn(Cc3cccc4[nH]ncc34)c(=O)c21 [Compound 153]
22 |  |  |  |  | 301 to 800 | 301 to 800 | < 300 | ≤ 1000 |  |  |  | Cn1c2nc(Cc3cn[nH]n3)sc2c2cnn(Cc3cccc(OC(F)(F)F)c3F)c(=O)c21 [Compound 329]
23 |  |  |  |  | > 800 | > 800 | > 800 |  | No Fit |  |  | Cn1c2nc(Cn3ccnc3)sc2c2cnn(Cc3cccc(C(N)=O)c3)c(=O)c21 [Compound 390]
24 | > 800 | > 800 | 301 to 800 |  |  |  |  |  |  | No Fit |  | COC(=O)c1nc2c(s1)c1cnn(Cc3cccc(OC)c3)c(=O)c1n2C [Compound 43]
25 |  |  |  |  | > 800 | > 800 | 301 to 800 | ≤ 1000 |  |  |  | Cn1cc(Cc2nc3c(s2)c2cnn(Cc4cccc5[nH]ncc45)c(=O)c2n3C)cn1 [Compound 186]
26 | < 300 | < 300 | < 300 | ≤ 1000 |  |  |  |  |  |  |  | Cn1c2nc([S+](C)[O-])sc2c2cnn(Cc3csc(N)n3)c(=O)c21 (stereo not shown) [Compound 83]
27 |  |  |  |  | > 800 | > 800 | > 800 | > 1000 |  |  |  | Cn1c2nc(Cc3c[nH]nn3)sc2c2cnn(Cc3ccccc3)c(=O)c21 [Compound 273]
28 | < 300 | > 800 | > 800 | > 1000 |  |  |  |  |  |  |  | CC(=O)c1cccc(Cn2ncc3c4sc([S+](C)[O-])nc4n(C)c3c2=O)c1 (stereo not shown) [Compound 86]
29 | < 300 | < 300 | < 300 | ≤ 1000 |  |  |  |  |  |  |  | Cn1c2nc(Cc3ccc4[nH]ncc4c3)sc2c2cnn(Cc3cccc4[nH]ncc34)c(=O)c21 [Compound 154]
30 |  |  |  |  | < 300 | < 300 | < 300 | ≤ 1000 |  |  |  | CC(c1cc[nH]n1)c1nc2c(s1)c1cnn(Cc3cccc4[nH]ncc34)c(=O)c1n2C (stereo not shown) [Compound 195]
31 | < 300 | < 300 | < 300 | ≤ 1000 |  |  |  |  |  |  |  | Cn1c2nc(Cc3ncsc3CO)sc2c2cnn(Cc3cccc4[nH]ncc34)c(=O)c21 [Compound 167]
32 |  |  |  |  | < 300 | < 300 | < 300 | ≤ 1000 |  |  |  | Cn1c2nc(Cc3cc[nH]n3)sc2c2cnn(Cc3ccc4c(c3)OCO4)c(=O)c21 [Compound 226]
33 | 301 to 800 | 301 to 800 | 301 to 800 | > 1000 |  |  |  |  |  |  |  | COc1cccc(Cn2ncc3c4sc([S+]([O-])c5ccccc5)nc4n(C)c3c2=O)c1 (stereo not shown) [Compound 35]
34 |  |  |  |  | < 300 | < 300 | < 300 | ≤ 1000 |  |  |  | Cn1c2nc(Cc3cc[nH]n3)sc2c2cnn(Cc3ccc4[nH]ncc4n3)c(=O)c21 [Compound 280]
35 |  |  |  |  | 301 to 800 | 301 to 800 | 301 to 800 | ≤ 1000 |  |  |  | Cn1c2nc(Cc3cc[nH]n3)sc2c2cnn(Cc3cn4cccnc4n3)c(=O)c21 [Compound 213]
36 |  |  |  |  | > 800 | > 800 | 301 to 800 | > 1000 |  |  |  | Cn1cc(Cc2nc3c(s2)c2cnn(Cc4cccc(C(N)=O)c4)c(=O)c2n3C)cn1 [Compound 389]
37 | < 300 | < 300 | < 300 | ≤ 1000 |  |  |  |  |  |  |  | Cn1ccc(Cc2nc3c(s2)c2cnn(Cc4cccc5[nH]ncc45)c(=O)c2n3C)n1 [Compound 157]
38 | > 800 | > 800 | > 800 |  |  |  |  |  |  | No Fit |  | CSc1nc2c(s1)c1cnn(Cc3cccc(S(N)(=O)=O)c3)c(=O)c1n2C [Compound 110]
39 | 301 to 800 | 301 to 800 | > 800 | > 1000 |  |  |  |  |  |  |  | Cn1c2nc(C#N)sc2c2cnn(Cc3csc(N)n3)c(=O)c21 [Compound 145]
40 |  |  |  |  | < 300 | < 300 | < 300 | ≤ 1000 |  |  |  | Cn1ncc2c(Cn3ncc4c5sc(Cc6cc[nH]n6)nc5n(C)c4c3=O)cccc21 [Compound 201]
41 | < 300 | < 300 | < 300 | ≤ 1000 |  |  |  |  |  |  |  | COc1cccc(Cn2ncc3c4sc(C)nc4n(C)c3c2=O)c1 [Compound 1]
42 | < 300 | < 300 | < 300 | > 1000 |  |  |  |  |  |  |  | COc1cccc(Cn2ncc3c4sc(S(C)(=O)=O)nc4n(C)c3c2=O)c1 [Compound 25]
43 | < 300 | < 300 | < 300 | ≤ 1000 |  |  |  |  |  |  |  | Cn1c2nc([S+](C)[O-])sc2c2cnn(Cc3ccc4ccccc4n3)c(=O)c21 (stereo not shown) [Compound 102]
44 | > 800 | > 800 | > 800 | > 1000 |  |  |  |  |  |  |  | Cc1nc2c(s1)c1cnn(Cc3ccc(N)cc3)c(=O)c1n2C [Compound 49]
45 |  |  |  |  | 301 to 800 | 301 to 800 | 301 to 800 | > 1000 |  |  |  | Cn1c2nc(Cc3cnc(N)s3)sc2c2cnn(Cc3cccc4[nH]ncc34)c(=O)c21 [Compound 229]
46 | < 300 | < 300 | < 300 | ≤ 1000 |  |  |  |  |  |  |  | Cn1c2nc(Cc3cc[nH]n3)sc2c2cnn(Cc3ccc(C#N)cc3)c(=O)c21 [Compound 175]
